# Results reported in ChEMBL document CHEMBL5634111, “Design, synthesis, and anti-respiratory syncytial virus potential of novel 3-(1,2,3-triazol-1-yl)furoxazine-fused benzimidazole derivatives” (Eur J Med Chem, 2023).
# pEC50: −log10 of the molar value.
# Columns and labels:
# [1] = Cytotoxicity against human HepG2 cells measured after 24 hrs by MTT assay; assay type: toxicity, cell-based
# [2] = tested on: Respiratory syncytial virus; assay: Antiviral activity against RSV infected in human HepG2 cells preincubated for 24 hrs followed by viral infection for 2 hrs and measured after 60 hrs by MTT assay; assay type: functional, organism-based
# [3] = Selectivity index, ratio of CC50 for human HepG2 cells to EC50 for RSV infected in human HepG2 cells; assay type: toxicity, cell-based; conditions: read-out: Ratio CC50/EC50
SMILES,CC50 at 24 h [1],pEC50 [2],selectivity ratio [3]
Brc1cc2nc3n(c2cc1Br)[C@H]1OC[C@H](n2cc(-c4ccccc4)nn2)[C@H]1OC3,63.6 µM,,
CCCCCCc1cn([C@H]2CO[C@H]3[C@@H]2OCc2nc4cc(Br)c(Br)cc4n23)nn1,52.3 µM,,
OCc1cn([C@H]2CO[C@H]3[C@@H]2OCc2nc4cc(Br)c(Br)cc4n23)nn1,104 µM,,
Cc1c(Br)cc2nc3n(c2c1Br)[C@H]1OC[C@H](n2cc(-c4ccccc4)nn2)[C@H]1OC3,53.3 µM,,
Brc1cc2nc3n(c2cc1Br)[C@H]1OC[C@H](n2cc(C4CC4)nn2)[C@H]1OC3,40 µM,5.20,6.39
CCOC(=O)c1cn([C@H]2CO[C@H]3[C@@H]2OCc2nc4cc(Br)c(Br)cc4n23)nn1,26.9 µM,,
OCCCc1cn([C@H]2CO[C@H]3[C@@H]2OCc2nc4cc(Br)c(Br)cc4n23)nn1,150 µM,,
Brc1cc2nc3n(c2cc1Br)[C@H]1OC[C@H](n2cc(COc4ccccc4)nn2)[C@H]1OC3,121 µM,4.66,5.73
OCCc1cn([C@H]2CO[C@H]3[C@@H]2OCc2nc4cc(Br)c(Br)cc4n23)nn1,70.1 µM,,
Cc1cn([C@H]2CO[C@H]3[C@@H]2OCc2nc4cc(Br)c(C)c(Br)c4n23)nn1,94.6 µM,4.85,6.68
CCCCCc1cn([C@H]2CO[C@H]3[C@@H]2OCc2nc4cc(Br)c(Br)cc4n23)nn1,237 µM,,
NC(=O)c1ncn([C@@H]2O[C@H](CO)[C@@H](O)[C@H]2O)n1 [RIBAVIRIN],246 µM,5.08,29.2
